Measured values published in patent US12077503B2, “Substituted cyclic amides and their use as herbicides” (FMC CORPORATION, priority 2015, dated 2024).

Tests used:
Format in all cases: in vivo
[1] = system: barnyardgrass (Echinochloa crus-galli); experiment: Test G Pre-Emergence Protocol; settings: Echinochloa crus-galli, pre-emergence, 312 h, evaluated after 13 days
Method in brief: (§1)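 Pots of seeds in standard soil were grown for one day in a glasshouse (24/16 °C day/night, 14 h light, 65% humidity), then sprayed with compound in acetone/water 50:50 with 0.5% Tween 20 at 15.625, 62.5 or 250 g/ha. Damage was scored after 13 days on a 0 (none) to 100 (total) scale.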

corn (Zea mays) [2] = experiment: Test G Pre-Emergence Protocol; settings: Zea mays, pre-emergence, 312 h, evaluated after 13 days
Method in brief: as §1

[3] = system: giant foxtail (Setaria faberi); experiment: Test G Pre-Emergence Protocol; settings: Setaria faberi, pre-emergence, 312 h, evaluated after 13 days
Method in brief: as §1

[4] = system: ivy-leaved morning glory (Ipomoea hederacea); experiment: Test G Pre-Emergence Protocol; settings: Ipomoea, pre-emergence, 312 h, evaluated after 13 days
Method in brief: as §1

[5] = system: redroot pigweed (Amaranthus retroflexus); experiment: Test G Pre-Emergence Protocol; settings: Amaranthus retroflexus, pre-emergence, 312 h, evaluated after 13 days
Method in brief: as §1

[6] = system: velvetleaf (Abutilon theophrasti); experiment: Test G Pre-Emergence Protocol; settings: Abutilon theophrasti, pre-emergence, 312 h, evaluated after 13 days
Method in brief: as §1

[7] = system: barnyardgrass (Echinochloa crus-galli); experiment: Test G Post-Emergence Protocol; settings: Echinochloa crus-galli, post-emergence, 312 h
Method in brief: (§2)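 Post-emergence herbicidal damage, scored visually 0–100 at 13 days. Application at 15.625, 62.5 or 250 g/ha onto 8-day-old plants grown under glasshouse control.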

corn (Zea mays) [8] = experiment: Test G Post-Emergence Protocol; settings: Zea mays, post-emergence, 312 h
Method in brief: as §2

[9] = system: giant foxtail (Setaria faberi); experiment: Test G Post-Emergence Protocol; settings: Setaria faberi, post-emergence, 312 h
Method in brief: as §2

[10] = system: ivy-leaved morning glory (Ipomoea hederacea); experiment: Test G Post-Emergence Protocol; settings: Ipomoea, post-emergence, 312 h
Method in brief: as §2

[11] = system: redroot pigweed (Amaranthus retroflexus); experiment: Test G Post-Emergence Protocol; settings: Amaranthus retroflexus, post-emergence, 312 h
Method in brief: as §2

[12] = system: velvetleaf (Abutilon theophrasti); experiment: Test G Post-Emergence Protocol; settings: Abutilon theophrasti, post-emergence, 312 h
Method in brief: as §2

Q: With `Cc1c(NC(=O)[C@H]2C(=O)N(C)C[C@@H]2c2ccc(C(F)(F)F)cc2)cccc1C(F)(F)F` (racemic) [Compound 1424] as the compound, how does the pest or weed control at 15.625 g/ha ([1]; 15.625 g ai/ha, read-out: Barnyard grass damage rating (100=total damage to plant; 0=no damage to plant)) read?
A: 0%

Q: What about the pest or weed control at 62.5 g/ha ([1]; 62.5 g ai/ha, 100=total damage to plant, 0=no damage to plant, read-out: plant damage rating, Barnyardgrass) of the same compound?
A: 10%

Q: What about the pest or weed control at 250 g/ha ([1]; 250 g ai/ha, read-out: Barnyardgrass damage rating (100=total damage to plant; 0=no damage to plant)) of the same compound?
A: 50%

Q: And the plant injury at 15.625 g/ha (corn (Zea mays) [2]; 15.625 g ai/ha, read-out: Corn damage rating (100=total damage to plant; 0=no damage to plant))?
A: 0%

Q: And the plant injury at 62.5 g/ha (corn (Zea mays) [2]; 62.5 g ai/ha, 100=total damage to plant, 0=no damage to plant, read-out: plant damage rating, Corn)?
A: 0%

Q: And the plant injury at 250 g/ha (corn (Zea mays) [2]; 250 g ai/ha, read-out: Corn damage rating (100=total damage to plant; 0=no damage to plant))?
A: 0%

Q: And the pest or weed control at 15.625 g/ha ([3]; 15.625 g ai/ha, read-out: Foxtail, Giant damage rating (100=total damage to plant; 0=no damage to plant))?
A: 0%

Q: What about the pest or weed control at 62.5 g/ha ([3]; 62.5 g ai/ha, 100=total damage to plant, 0=no damage to plant, read-out: plant damage rating, Foxtail, Giant) of the same compound?
A: 40%

Q: What about the pest or weed control at 250 g/ha ([3]; 250 g ai/ha, read-out: Foxtail, Giant damage rating (100=total damage to plant; 0=no damage to plant)) of the same compound?
A: 70%

Q: And the pest or weed control at 15.625 g/ha ([4]; 15.625 g ai/ha, read-out: Morning-glory, Ivy-leaved damage rating (100=total damage to plant; 0=no damage to plant))?
A: 0%

Q: What about the pest or weed control at 62.5 g/ha ([4]; 62.5 g ai/ha, 100=total damage to plant, 0=no damage to plant, read-out: plant damage rating, Morningglory, Ivy-leaved) of the same compound?
A: 0%

Q: What about the pest or weed control at 250 g/ha ([4]; 250 g ai/ha, read-out: Morningglory, Ivy-leaved damage rating (100=total damage to plant; 0=no damage to plant)) of the same compound?
A: 0%

Q: What about the pest or weed control at 15.625 g/ha ([5]; 15.625 g ai/ha, read-out: Pigweed, Redroot damage rating (100=total damage to plant; 0=no damage to plant)) of the same compound?
A: 0%

Q: What about the pest or weed control at 62.5 g/ha ([5]; 62.5 g ai/ha, 100=total damage to plant, 0=no damage to plant, read-out: plant damage rating, Pigweed, Redroot) of the same compound?
A: 0%

Q: And the pest or weed control at 250 g/ha ([5]; 250 g ai/ha, read-out: Pigweed, Redroot damage rating (100=total damage to plant; 0=no damage to plant))?
A: 0%

Q: And the pest or weed control at 15.625 g/ha ([6]; 15.625 g ai/ha, read-out: Velvetleaf damage rating (100=total damage to plant; 0=no damage to plant))?
A: 0%

Q: What about the pest or weed control at 62.5 g/ha ([6]; 62.5 g ai/ha, 100=total damage to plant, 0=no damage to plant, read-out: plant damage rating, Velvetleaf) of the same compound?
A: 0%

Q: And the pest or weed control at 250 g/ha ([6]; 250 g ai/ha, read-out: Velvetleaf damage rating (100=total damage to plant; 0=no damage to plant))?
A: 0%

Q: And the pest or weed control at 15.625 g/ha ([7]; 15.625 g ai/ha, evaluated after 13 days (100=total damage to plant; 0=no damage to plant), read-out: Barnyardgrass damage rating)?
A: 0%

Q: What about the pest or weed control at 62.5 g/ha ([7]; 62.5 g ai/ha, evaluated after 13 days, read-out: Barnyardgrass damage rating (100=total damage to plant; 0=no damage to plant)) of the same compound?
A: 0%

Q: And the pest or weed control at 250 g/ha ([7]; 250 g ai/ha, evaluated after 13 days, read-out: damage to plant, Barnyardgrass (100=total damage to plant; 0=no damage to plant))?
A: 10%

Q: What about the plant injury at 15.625 g/ha (corn (Zea mays) [8]; 15.625 g ai/ha, evaluated after 13 days (100=total damage to plant; 0=no damage to plant), read-out: Corn damage rating) of the same compound?
A: 0%

Q: And the plant injury at 62.5 g/ha (corn (Zea mays) [8]; 62.5 g ai/ha, evaluated after 13 days, read-out: Corn damage rating (100=total damage to plant; 0=no damage to plant))?
A: 0%

Q: And the plant injury at 250 g/ha (corn (Zea mays) [8]; 250 g ai/ha, evaluated after 13 days, read-out: damage to plant, Corn (100=total damage to plant; 0=no damage to plant))?
A: 10%

Q: What about the pest or weed control at 15.625 g/ha ([9]; 15.625 g ai/ha, evaluated after 13 days (100=total damage to plant; 0=no damage to plant), read-out: Foxtail, Giant damage rating) of the same compound?
A: 0%

Q: What about the pest or weed control at 62.5 g/ha ([9]; 62.5 g ai/ha, evaluated after 13 days, read-out: Foxtail, Giant damage rating (100=total damage to plant; 0=no damage to plant)) of the same compound?
A: 0%

Q: What about the pest or weed control at 250 g/ha ([9]; 250 g ai/ha, evaluated after 13 days, read-out: damage to plant, Foxtail, Giant (100=total damage to plant; 0=no damage to plant)) of the same compound?
A: 20%

Q: What about the pest or weed control at 15.625 g/ha ([10]; 15.625 g ai/ha, evaluated after 13 days (100=total damage to plant; 0=no damage to plant), read-out: Morningglory, Ivy-leaved damage rating) of the same compound?
A: 0%

Q: And the pest or weed control at 62.5 g/ha ([10]; 62.5 g ai/ha, evaluated after 13 days, read-out: Morningglory, Ivy-leaved damage rating (100=total damage to plant; 0=no damage to plant))?
A: 0%

Q: And the pest or weed control at 250 g/ha ([10]; 250 g ai/ha, evaluated after 13 days, read-out: damage to plant, Morningglory, Ivy-leaved (100=total damage to plant; 0=no damage to plant))?
A: 0%

Q: What about the pest or weed control at 15.625 g/ha ([11]; 15.625 g ai/ha, evaluated after 13 days (100=total damage to plant; 0=no damage to plant), read-out: Pigweed, Redroot damage rating) of the same compound?
A: 10%

Q: What about the pest or weed control at 62.5 g/ha ([11]; 62.5 g ai/ha, evaluated after 13 days, read-out: Pigweed, Redroot damage rating (100=total damage to plant; 0=no damage to plant)) of the same compound?
A: 20%

Q: What about the pest or weed control at 250 g/ha ([11]; 250 g ai/ha, evaluated after 13 days, read-out: damage to plant, Pigweed, Redroot (100=total damage to plant; 0=no damage to plant)) of the same compound?
A: 20%

Q: And the pest or weed control at 15.625 g/ha ([12]; 15.625 g ai/ha, evaluated after 13 days (100=total damage to plant; 0=no damage to plant), read-out: Velvetleaf damage rating)?
A: 0%

Q: What about the pest or weed control at 62.5 g/ha ([12]; 62.5 g ai/ha, evaluated after 13 days, read-out: Velvetleaf damage rating (100=total damage to plant; 0=no damage to plant)) of the same compound?
A: 0%

Q: What about the pest or weed control at 250 g/ha ([12]; 250 g ai/ha, evaluated after 13 days, read-out: damage to plant, Velvetleaf (100=total damage to plant; 0=no damage to plant)) of the same compound?
A: 0%
